# Key:
# [1] = test system: THP1-defNLRP3 cells; assay: Agonistic effect on the expression of IL-1β in NLRP3 deficient THP1 cells (THP1-defNLRP3) after PMA-induced differentiation (HTRF); format: cell-based, human; conditions: Homo sapiens, THP-1; IL-1β level, PMA-differentiated NLRP3 deficient THP1 cells, 6 hours; highest test concentration 30 μM; read-out: hNLRP3 EC50 (μM) (THP-1defNLRP3)
# From the text: Experimental Example 2: Agonistic Effect of the Compound of the Invention on the Expression of IL-1β in NLRP3 Deficient THP1 Cells (THP1-defNLRP3 Cells) after PMA-Induced Differentiation
# In this test, a HTRF detection method was used to test the effect of the compound of the invention on the level of IL-1β in THP1-defNLRP3 cells to evaluate the specificity of the agonistic effect of the compound on hNLRP3 inflammasome or hNLRP3 inflammasome pathway.
# Reagents: as described in Experimental Example 1
# Cell: THP1-defNLRP3 (InvivoGen)
# Kit: IL-1β assay kit (CISBIO)
# 1) THP1-defNLRP3 cells in a logarithmic growth phase were seeded in a T75 culture flask at a density of 5×10^5 cells/well, and cultured in a cell incubator at 37° C., 5% CO2 for 24 hours, and then 1 μM PMA was used to induce THP1-defNLRP3 suspension cells to become adherent macrophages. The medium was RPMI 1640 containing 10% heat-inactivated FBS and 0.05 mM β-mercaptoethanol.
# 2) The cells were induced and cultured for 24 hours. Then the adherent cells were trypsinized and centrifuged at 1000 rpm for 5 min. The supernatant was removed, and the cells were resuspended to a density of 2×10^6 cells/mL in RPMI 1640 medium containing 2% heat-inactivated FBS. 50 μL/well of the cell resuspension was taken and spread on a 96-well plate such that the number of cells in each well was 1×10^5.
# 3) An appropriate amount of 10 mM DMSO solution of the compound to be tested was taken and diluted to a concentration of 2× test concentration with RPMI 1640 medium containing 2% heat-inactivated FBS. 50 μL/well of the dilution was added to the cells in the 96-well plate, and mixed well. The plate was incubated in a cell incubator at 37° C., 5% CO2 for 6 hours. The supernatant was collected, and the level of IL-1β was measured in accordance with the instructions of the IL-1β detection kit.
# 4) EC50 was fitted by the GraphPad software log(agonist) vs. response—Variable slope four-parameter method.
# [2] = target: T1, hTLR7 (Homo sapiens, UniProt Q9NYK1); assay: Agonistic effect on hTLR7, HEK-hTLR7-NF-κB-Luciferase reporter cells; format: cell-based; conditions: 16 hours
# T1 construct: host or cells: HEK-hTLR7-NF-κB-Luciferase cells
# T1 sequence (Q9NYK1 27-1049): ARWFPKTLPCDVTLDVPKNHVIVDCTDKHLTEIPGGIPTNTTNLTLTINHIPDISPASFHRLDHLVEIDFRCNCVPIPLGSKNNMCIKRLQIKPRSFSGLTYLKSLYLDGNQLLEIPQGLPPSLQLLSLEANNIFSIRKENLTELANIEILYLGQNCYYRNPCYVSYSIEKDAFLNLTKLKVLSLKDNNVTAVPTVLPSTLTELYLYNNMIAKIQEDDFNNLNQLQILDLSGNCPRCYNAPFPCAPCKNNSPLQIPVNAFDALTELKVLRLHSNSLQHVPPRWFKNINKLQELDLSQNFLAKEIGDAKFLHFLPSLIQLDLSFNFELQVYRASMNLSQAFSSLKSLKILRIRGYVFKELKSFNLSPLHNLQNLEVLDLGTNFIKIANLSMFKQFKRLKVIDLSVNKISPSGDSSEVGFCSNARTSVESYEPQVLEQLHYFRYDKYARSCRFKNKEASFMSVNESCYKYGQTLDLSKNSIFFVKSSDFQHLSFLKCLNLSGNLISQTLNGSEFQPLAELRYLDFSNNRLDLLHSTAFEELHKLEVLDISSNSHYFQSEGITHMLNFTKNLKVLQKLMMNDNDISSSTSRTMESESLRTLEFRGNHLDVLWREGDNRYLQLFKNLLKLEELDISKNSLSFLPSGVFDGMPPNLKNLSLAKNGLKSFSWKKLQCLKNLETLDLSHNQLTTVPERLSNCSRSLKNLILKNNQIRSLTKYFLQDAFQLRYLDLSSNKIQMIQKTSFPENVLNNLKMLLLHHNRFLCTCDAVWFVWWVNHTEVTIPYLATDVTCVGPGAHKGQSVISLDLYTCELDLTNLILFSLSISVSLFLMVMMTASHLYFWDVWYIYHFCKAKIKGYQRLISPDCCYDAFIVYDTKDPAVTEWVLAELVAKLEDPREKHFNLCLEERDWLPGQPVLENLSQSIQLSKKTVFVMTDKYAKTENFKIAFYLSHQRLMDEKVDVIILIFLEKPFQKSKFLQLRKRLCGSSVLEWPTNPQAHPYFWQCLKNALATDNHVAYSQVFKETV
# From the text: Experimental Example 3: Agonistic Effect of the Compound of the Invention on hTLR7
# In this test, the luciferase in HEK-hTLR7-NF-κB-reporter cells was detected to test the activating effect of the compound of the invention on TLR7 signaling pathway, so as to evaluate the specificity of the agonistic effect of the compound on NLRP3 pathway.
# Reagents: DMEM (High glucose); FBS (fetal bovine serum) (Gibco); Bright-Glo™ Luciferase detection kit (Promega)
# Cells: HEK-hTLR7-NF-κB-Luciferase gene cells (human TLR7 NF-κB-luciferase reporter gene cells) (Nanjing Cobioer)
# 1) The HEK-hTLR7-NF-κB-Luciferase cells in a logarithmic growth phase were trypsinized and resuspended in the medium to a concentration of 2×10^6 cells/mL. 50 μL/well of the cell resuspension was added to a 96-well plate such that the number of cells in each well was […]. An appropriate amount of 10 mM DMSO solution of the compound to be tested was taken and diluted to a concentration of 2× test concentration with the medium. 50 μL/well was added to the cells in the 96-well plate, and the 96-well plate was incubated in an incubator at 37° C. and 5% CO2 for 16 hours. The medium was DMEM (High glucose) containing 10% FBS.
# 2) After the cell incubation, 100 μL/well of Bright-Glo™ Luciferase detection reagent was added, and the mixture was incubated at room temperature for 5 minutes. Relative luciferase activity unit (RLU) was read using a microplate reader.
# 3) The EC50 of effect of the tested compound to stimulate hTLR7 was fitted by the GraphPad software log(agonist) vs. response—Variable slope four-parameter method.
EC50 [1],EC50 [2],Compound
> 30 µM,> 100 µM,"Nc1cc(NC2CCC(O)CC2)c2sc(-c3ccn[nH]3)cc2n1 (stereo not drawn) [Compound 114, 4-((5-amino-2-(1H-pyrazol-5-yl)thieno[3,2-b]pyridin-7-yl)amino)-1-cyclohexanol]"
> 30 µM,> 100 µM,Nc1cc(NCCNC(=O)C2CC2)c2sc(-c3ccn[nH]3)cc2n1 [Compound 64]
> 30 µM,> 100 µM,"Nc1cc(NC[C@@H]2CCCO2)c2sc(-c3ccn[nH]3)cc2n1 [Compound 105, (S)-2-(1H-pyrazol-5-yl)-N^7-((tetrahydrofuran-2-yl)methyl)thieno[3,2-b]pyridine-5,7-diamine]"
> 30 µM,> 100 µM,CC(=O)NCCNc1cc(N)nc2cc(-c3ccn[nH]3)sc12 [Compound 52]
> 30 µM,> 100 µM,"CN(CCNc1cc(N)nc2cc(-c3ccn[nH]3)sc12)C(=O)C1CC1 [Compound 75, N-(2-((5-amino-2-(1H-pyrazol-5-yl)thieno[3,2-b]pyridin-7-yl)amino)ethyl)-N-methylcyclopropionamide]"
> 30 µM,> 100 µM,"Nc1cc(N[C@@H]2CCC[C@@H]2O)c2sc(-c3ccn[nH]3)cc2n1 [Compound 96, (1S,2R)-2-((5-amino-2-(1H-pyrazol-5-yl)thieno[3,2-b]pyridin-7-yl)amino)cyclopentanol]"
> 30 µM,> 100 µM,Nc1cc(N2CCCC(O)C2)c2sc(-c3ccn[nH]3)cc2n1 (stereo not drawn) [Compound 166]
> 30 µM,> 100 µM,CC1(C)CCN(c2cc(N)nc3cc(-c4ccn[nH]4)sc23)CC1 [Compound 173]
> 30 µM,> 100 µM,CC(=O)NCCCNc1cc(N)nc2cc(-c3ccn[nH]3)sc12 [Compound 53]
> 30 µM,> 100 µM,C[C@@H]1CN(c2cc(N)nc3cc(-c4ccn[nH]4)sc23)C[C@H](C)O1 [Compound 169]
> 30 µM,> 100 µM,CC1CN(CCNc2cc(N)nc3cc(-c4ccn[nH]4)sc23)CC(C)O1 (stereo not drawn) [Compound 62]
> 30 µM,> 100 µM,"CC1(O)CCN(CCNc2cc(N)nc3cc(-c4ccn[nH]4)sc23)CC1 [Compound 98, 1-(2-((5-amino-2-(1H-pyrazol-5-yl)thieno[3,2-b]pyridin-7-yl)amino)ethyl)-4-methylpiperidine-4-ol]"
> 30 µM,> 100 µM,"Cn1cc(CNc2cc(N)nc3cc(-c4ccn[nH]4)sc23)cn1 [Compound 106, N^7-(1-methyl-1H-pyrazol-4-yl)methyl-2-(1H-pyrazol-5-yl)thieno[3,2-b]pyridine-5,7-diamine]"
> 30 µM,> 100 µM,"CO[C@H](C)CNc1cc(N)nc2cc(-c3ccn[nH]3)sc12 [Compound 101, (R)—N^7-(2-methoxypropyl)-2-(1H-pyrazol-5-yl)thieno[3,2-b]pyridine-5,7-diamine]"
> 30 µM,> 100 µM,Cc1c(-c2ccn[nH]2)sc2c(NC[C@@H]3CCCO3)cc(N)nc12 [Compound 157]
> 30 µM,> 100 µM,COC1CCN(c2cc(N)nc3cc(-c4ccn[nH]4)sc23)C1 (stereo not drawn) [Compound 180]
> 30 µM,> 100 µM,"Nc1cc(N[C@H]2CC[C@H](O)C2)c2sc(-c3ccn[nH]3)cc2n1 [Compound 26, (1S,3S)-3-((5-amino-2-(1H-pyrazol-5-yl)thieno[3,2-b]pyridin-7-yl)amino)cyclopentanol]"
> 30 µM,> 100 µM,"CN1CCN(CCNc2cc(N)nc3cc(-c4ccn[nH]4)sc23)CC1 [Compound 57, N^7-(2-(4-methylpiperazin-1-yl)ethyl)-2-(1H-pyrazol-5-yl)thieno[3,2-b]pyridine-5,7-diamine]"
> 30 µM,> 100 µM,Cc1c(-c2cc[nH]n2)sc2c(NCC3CC3)cc(N)nc12 [Compound 156]
> 30 µM,> 100 µM,Cc1c(-c2cc[nH]n2)sc2c(NCCCO)cc(N)nc12 [Compound 159]
> 30 µM,> 100 µM,Nc1cc(N2CCC(O)CC2)c2sc(-c3ccn[nH]3)cc2n1 [Compound 172]

# From patent US20220056043A1, “NITROGEN-CONTAINING FUSED CYCLIC COMPOUND, PREPARATION METHOD THEREFOR AND USE THEREOF” (SICHUAN KELUN-BIOTECH BIOPHARMACEUTICAL CO., LTD., priority 2019, published 2022)
